Measured values published in patent publication US9783575B2, “Methyl degron peptide and methods of controlling protein lifespan” (Seoul National University (SNU) R&D Foundation, priority 2012, dated 2017).

Experiments:
[1] = tested on: EZH2; test: Immunoblot of EZH2 and RORα protein levels with DZNep; format: cell-based; conditions: MCF7 cells, DZNep 1 μM, 24 hr, immunoblot (FIG. 19)
Description: (§1) In order to determine whether the ubiquitin-proteasome pathway is responsible for RORα degradation and to further examine whether the introduction of EZH2 augments RORα ubiquitination by allowing increased RORα methylation, we performed an RORα ubiquitination assay with EZH2 in the presence of a 26S proteasome inhibitor, MG132. […] To further examine whether K38 methylation directly affects RORα ubiquitination, we performed a ubiquitination assay for RORα WT and RORα K38A in the presence of MG132. Indeed, RORα K38A mutation led to a marked reduction in RORα ubiquitination compared to RORα WT (FIG. 18). Next, we examined whether an EZH2 small molecule inhibitor, exemplified by DZNep, rescues the EZH2-mediated degradation of RORα.

[2] = tested on: RORα ubiquitination; test: RORα ubiquitination assay with DZNep; format: cell-based; conditions: HEK-293T cells, DZNep 1 μM, 24 hr (FIG. 20)
Procedure: Cells were transfected with combinations of plasmids including HisMax-ubiquitin. After incubation for 48 hrs, cells were treated with MG132, lysed in buffer A (6 M guanidinium-HCl, 0.1 M Na2HPO4/NaH2PO4, 0.01 M Tris-Cl [pH 8.0], 5 mM imidazole, and 10 mM β-mercaptoethanol), and incubated with Ni^2+-NTA beads (Qiagen) for 4 hrs at room temperature. The beads were sequentially washed with buffer A, buffer B (8 M urea, 0.1 M Na2PO4/NaH2PO4, 0.01 M Tris-Cl [pH 8.0], and 10 mM β-mercaptoethanol), and buffer C (8 M urea, 0.1 M Na2PO4/NaH2PO4, 0.01 M Tris-Cl [pH 6.3], and 10 mM β-mercaptoethanol). Bound proteins were eluted with buffer D (200 mM imidazole, 0.15 M Tris-Cl [pH 6.7], 30% glycerol, 0.72 M β-mercaptoethanol, and 5% SDS), and subject to immunoblot analysis.
as §1, with “Next, we examined whether an EZH2 small molecule inhibitor, exemplified by DZNep, rescues the EZH2-mediated degradation of RORα.” left out

[3] = tested on: MCF7 breast cancer cells; test: Cell transformation assay (anchorage-independent growth in soft agar); format: cell-based; set-up: dose or concentration left out as unconfirmed; conditions: 3 weeks (FIG. 60)
Procedure: Representative images are shown for each group. Immunoblot analysis was performed to detect each protein level. […]

[4] = target: T1, EZH2 (Homo sapiens, UniProt Q15910); test: In vitro methyltransferase (HMTase) assay with mass spectrometry; format: biochemical; conditions: 100 μM synthetic peptide, GST-EZH2, LC-MS (FIG. 4)
T1 construct: GST
T1 sequence (Q15910 whole entry, species assumed): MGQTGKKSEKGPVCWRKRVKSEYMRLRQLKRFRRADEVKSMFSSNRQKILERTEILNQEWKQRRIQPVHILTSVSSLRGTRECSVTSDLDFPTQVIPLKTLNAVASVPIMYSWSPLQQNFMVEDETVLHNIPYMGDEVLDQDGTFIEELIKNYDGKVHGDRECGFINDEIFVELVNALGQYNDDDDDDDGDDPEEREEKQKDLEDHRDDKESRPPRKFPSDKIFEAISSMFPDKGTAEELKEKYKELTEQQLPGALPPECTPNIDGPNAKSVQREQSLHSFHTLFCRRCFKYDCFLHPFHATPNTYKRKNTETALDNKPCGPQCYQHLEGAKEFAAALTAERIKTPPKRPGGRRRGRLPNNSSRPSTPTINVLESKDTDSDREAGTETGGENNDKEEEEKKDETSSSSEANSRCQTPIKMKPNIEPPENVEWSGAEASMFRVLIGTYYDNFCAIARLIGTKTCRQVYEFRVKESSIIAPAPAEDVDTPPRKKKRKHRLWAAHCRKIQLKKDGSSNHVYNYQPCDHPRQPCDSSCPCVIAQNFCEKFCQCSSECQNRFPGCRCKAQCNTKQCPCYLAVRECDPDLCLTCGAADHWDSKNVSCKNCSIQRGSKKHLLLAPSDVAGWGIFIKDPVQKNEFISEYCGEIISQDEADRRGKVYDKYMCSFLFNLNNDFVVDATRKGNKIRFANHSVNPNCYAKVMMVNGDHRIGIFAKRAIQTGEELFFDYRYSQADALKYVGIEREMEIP
Procedure: Small quantities (100 μM) of synthetic peptides (RORα WT) were used as substrates in the HMTase assay with EZH2 enzyme; the reaction was stopped by 10% TCA precipitation for 10 min at 4° C. After removing the precipitates by centrifugation, the supernatants were retrieved and methylated peptides in the supernatants were analyzed by LC-MS. The eluted peptides were separated on a Luna column (C18 PepMap 100, 150×1 mm 5 micron) with a linear gradient (A: 100% H2O, 0.1% formic acid, B: 100% ACN, 0.1% formic acid) at a flow rate of […]. Typically, 2 μL of sample was injected. Mass spectrometry was performed on a linear ion trap mass spectrometer (LCQ DECA XP, Thermo Finningan) coupled to a nano-LC system (NANOSPACE SI-2, Shiseido). The MS method consisted of a cycle combining one full MS scan (Mass range: 160-2000 m/z).
The association of EZH2 with RORα at endogenous levels was confirmed by co-immunoprecipitation analysis (FIG. 3). To assess whether RORα is methylated by EZH2 and to determine the methylation status of RORα, peptides bearing amino acids 31-40 of RORα (LNQESARKSE) were in vitro methylated by EZH2 and analyzed by mass spectrometry. […]

| Molecule | EZH2 protein levels [1] | RORα protein levels [1] | RORα ubiquitination levels [2] | cellular transformation (colony formation in soft agar) [3] | methylation of peptide by EZH2 [4] |
| --- | --- | --- | --- | --- | --- |
| Nc1nccc2c1ncn2C1C=C(CO)C(O)C1O (centres unmarked) [DZNep] | reduction of EZH2 protein levels | increases in RORα protein levels | decreased | inhibitory effect on cellular transformation | – |
| LNQESARKSE [RORα wild-type (WT) peptide, peptide bearing amino acids 31-40 of RORα] | – | – | – | – | addition of one methyl group to the K38 site |
